Experimental data: ChEMBL document CHEMBL2434881, “Design and evaluation of novel 8-oxo-pyridopyrimidine Jak1/2 inhibitors” (Bioorg Med Chem Lett, 2013)
≈ marks a conversion by molar mass, not a printed value.

Assays:
[1] = Aqueous kinetic solubility of the compound in PBS buffer at pH 7.4; type: physicochemical; settings: read-out: Kinetic_solubility
[2] = Apparent permeability of the compound from apical to basolateral side of MDCK cells; type: ADME, cell-based, Canis lupus familiaris; settings: dog

| solubility kinetic [1] [µM] | Papp A→B [2] [×10⁻⁶ cm/s] | Structure (SMILES) |
| --- | --- | --- |
| 51 (≈ 17.4 µg/mL) | – | N#C[C@H]1CCC[C@H]1Nc1nc(N2CCOCC2)nc2c(=O)[nH]ccc12 (racemic) |
| 24 (≈ 7.71 µg/mL) | 0.2 | N#C[C@H]1CCC[C@H]1Nc1nc(-c2cn[nH]c2)nc2c(=O)[nH]ccc12 (racemic) |
| 19 (≈ 6.24 µg/mL) | – | CN(CCO)c1nc(N[C@@H]2CCC[C@@H]2C#N)c2cc[nH]c(=O)c2n1 (racemic) |
| 104 (≈ 26.5 µg/mL) | – | N#C[C@H]1CCC[C@H]1Nc1ncnc2c(=O)[nH]ccc12 (racemic) |
| 8.6 (≈ 2.91 µg/mL) | – | N#C[C@H]1CCC[C@H]1Nc1nc(N2CCCCC2)nc2c(=O)[nH]ccc12 (racemic) |
| 318 (≈ 73.2 µg/mL) | 2.5 | O=c1[nH]ccc2c(NC3CCCC3)ncnc12 |
| 74 (≈ 21 µg/mL) | – | CNc1nc(N[C@@H]2CCC[C@@H]2C#N)c2cc[nH]c(=O)c2n1 (racemic) |
| 140 (≈ 39.7 µg/mL) | 0.6 | CCc1nc(N[C@@H]2CCC[C@@H]2C#N)c2cc[nH]c(=O)c2n1 (racemic) |
| 225 (≈ 55 µg/mL) | – | O=c1[nH]ccc2c(NC3CCCCC3)ncnc12 |
| 11 (≈ 3.65 µg/mL) | – | N#C[C@H]1CCC[C@H]1Nc1nc(-c2ccccc2)nc2c(=O)[nH]ccc12 (racemic) |
| 119 (≈ 30.4 µg/mL) | – | N#CC1CCCC1Nc1ncnc2c(=O)[nH]ccc12 (single isomer, unassigned; enantiomer 1) |
